According to patent publication US12606544B2, “JAK1 selective kinase inhibitor” (DIZAL (JIANGSU) PHARMACEUTICAL CO., LTD., priority 2019, dated 2026):

Key:
JAK1 = biological target: T1, JAK1 (Homo sapiens, UniProt P23458); test: Lance Ultra Kinase Assay, recombinant JAK1; format: biochemical; details: 5 mM ATP
T1 construct: purchased Carna Biosciences
Procedure: (§1) Recombinant JAK1, JAK2, JAK3 and TYK2 purchased from Carna Biosciences. The inhibition potency of compounds against JAK1, JAK2, JAK3 and TYK2 was assessed using Lance Ultra Kinase Assay.
(§2) In brief, recombinant kinases were pre-incubated in the presence or absence of compound at room temperature for 15 minutes. The reaction was initiated by the addition of 5 mM ATP and substrate peptide which could be phosphorylated by kinases in the reaction. After 60 minutes incubation, the reaction was stopped by the addition of the detection reagent mix containing EDTA. The fluorescence was measured at 615 nm and 665 nm, respectively with excitation wavelength at 320 nm. The calculated signal ratio of 665 nm/615 nm is proportional to the kinase activity.

[1] = Metabolic stability in rat hepatocytes; format: in vitro ADME; details: 1 μM compound, male rat hepatocytes
Procedure: (§3) Rat hepatocytes in male gender and human liver microsome were obtained from commercial vendors (e.g., BioreclamationIVT) and stored at −150° C. prior to use.
For metabolic stability assay with rat heptatocytes, vials of cryopreserved hepatocytes or microsome were removed from storage, ensured that vials remain at cryogenic temperatures. 1 μM of each test compound (in Acetonitrile; 0.01% DMSO) was incubated with 250 μL of hepatocyte cells (1×10^6 cells/ml) in a 96 deep well plate. […] 40 μL of supernatant was diluted to 200 μL with pure water and analyzed using LC-MS/MS.
In vitro hepatocyte clearance was estimated based on determination of elimination half-life (T1/2) of compounds disappearance from their initial concentrations. Peak area ratios of each compound (test or control) to IS was calculated. Ln (% Control) versus Incubation Time (min) curve was plotted, and the slope of a linear fitting line was calculated. Drug elimination rate constant k (min−1), T1/2 (min), and in vitro intrinsic clearance CLint (μL/min/E6) was calculated according to the following equations: k=−slope T1/2=0.693/k CLint=k/Chep Where Chep (cells×μL^−1) is the cell concentration in the incubation system.

phosphorylation of STAT6 = test: Cellular p-STAT6 assay, IL-13 stimulated THP-1 cells, flow cytometry; format: cell-based; details: Homo sapiens, THP-1, THP-1 cells, IL-13 10 ng/ml; read-out: pSTAT6 IC50
Procedure: To detect phosphorylated STAT6 (pSTAT6), THP-1 cells were harvested by centrifugation at 250 g for 5 min and resuspended in assay medium (RPMI1640+10% FBS) to 2×10^5 cells/well. Test compounds were applied to assay plates in serial dilution from 1 μM to 0.3 nM in DMSO. THP-1 cells were incubated with serial diluted compounds for 60 min at room temperature, followed by stimulation of interleukin (IL-13, 10 ng/ml) for 30 min, fixed in Cytofix buffer (BD Biosciences), and permeabilized in 90% methanol on ice. PE anti-pSTAT6 (BD Biosciences) antibodies were stained for 60 min at room temperature before being analyzed by flow cytometry. In the assay the compounds were thus diluted and dose-response curves for inhibition of the signal determine the IC50 for the compounds.

JAK3 = biological target: T2, JAK3 (Homo sapiens, UniProt P52333); test: Lance Ultra Kinase Assay, recombinant JAK3; format: biochemical; details: 5 mM ATP
T2 construct: purchased Carna Biosciences
T2 sequence (P52333 1-1124): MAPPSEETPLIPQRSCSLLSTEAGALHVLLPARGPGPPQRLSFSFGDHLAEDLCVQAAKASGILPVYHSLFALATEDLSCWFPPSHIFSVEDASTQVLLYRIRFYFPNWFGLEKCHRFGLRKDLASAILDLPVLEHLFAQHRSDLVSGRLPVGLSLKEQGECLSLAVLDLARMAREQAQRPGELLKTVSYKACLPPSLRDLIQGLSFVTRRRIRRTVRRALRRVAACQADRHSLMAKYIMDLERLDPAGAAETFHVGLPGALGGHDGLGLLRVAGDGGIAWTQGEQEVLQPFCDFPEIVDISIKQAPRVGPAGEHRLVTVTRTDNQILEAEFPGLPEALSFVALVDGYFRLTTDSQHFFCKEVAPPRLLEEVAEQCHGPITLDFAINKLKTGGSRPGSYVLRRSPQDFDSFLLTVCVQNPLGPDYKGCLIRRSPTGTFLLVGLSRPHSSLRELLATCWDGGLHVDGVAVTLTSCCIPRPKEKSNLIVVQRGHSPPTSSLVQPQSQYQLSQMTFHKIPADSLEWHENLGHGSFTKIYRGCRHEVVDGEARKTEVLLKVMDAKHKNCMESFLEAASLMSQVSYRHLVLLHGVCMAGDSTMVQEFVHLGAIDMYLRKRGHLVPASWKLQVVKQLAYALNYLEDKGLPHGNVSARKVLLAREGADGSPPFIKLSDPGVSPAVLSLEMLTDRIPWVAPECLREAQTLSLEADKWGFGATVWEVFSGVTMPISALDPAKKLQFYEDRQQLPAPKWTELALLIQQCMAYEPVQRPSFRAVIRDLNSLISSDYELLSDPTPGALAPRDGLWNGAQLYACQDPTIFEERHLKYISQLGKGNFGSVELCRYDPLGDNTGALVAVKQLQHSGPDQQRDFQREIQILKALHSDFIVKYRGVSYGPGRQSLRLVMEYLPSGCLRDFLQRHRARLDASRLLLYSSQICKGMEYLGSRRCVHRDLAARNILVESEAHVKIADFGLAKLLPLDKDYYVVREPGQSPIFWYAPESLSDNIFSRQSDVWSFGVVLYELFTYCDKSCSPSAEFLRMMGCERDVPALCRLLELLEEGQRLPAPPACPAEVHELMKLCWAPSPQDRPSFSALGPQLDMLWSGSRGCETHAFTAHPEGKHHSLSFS
Procedure: as §1, §2

[2] = Metabolic stability in human liver microsome; format: in vitro ADME; details: human, pooled human liver microsomes, pH 7.4, 1 μM compound, 1 mg/mL microsomes, NADPH
Procedure: as §3
For metabolic stability assay with human liver microsome, 1 μM of each test compound was incubated with 1 mg/mL of microsomes (Pooled HLM with 20 mg/ml protein cone) at 37° C. in 250 μL of buffer (100 mM phosphate buffer, pH-7.4) containing 1 mM NADPH solution. […] was quenched with 5 volumes chilled acetonitrile at different time points 0, 0.5, 5, 10, 15, 20 and 30 min in a fresh 96 well plate. The quench plate was centrifuged at 4000 rpm for 15 min. 40 μL of supernatant was diluted to 200 μL with pure water and analyzed using LC-MS/MS. […]

TYK2 = biological target: T3, TYK2 (Homo sapiens, UniProt P29597); test: Lance Ultra Kinase Assay, recombinant TYK2; format: biochemical; details: 5 mM ATP
T3 construct: purchased Carna Biosciences
Procedure: as §1, §2

JAK2 = biological target: T4, JAK2 (Homo sapiens, UniProt O60674); test: Lance Ultra Kinase Assay, recombinant JAK2; format: biochemical; details: 5 mM ATP
T4 construct: purchased Carna Biosciences
Procedure: as §1, §2

T1 sequence (P23458 whole entry): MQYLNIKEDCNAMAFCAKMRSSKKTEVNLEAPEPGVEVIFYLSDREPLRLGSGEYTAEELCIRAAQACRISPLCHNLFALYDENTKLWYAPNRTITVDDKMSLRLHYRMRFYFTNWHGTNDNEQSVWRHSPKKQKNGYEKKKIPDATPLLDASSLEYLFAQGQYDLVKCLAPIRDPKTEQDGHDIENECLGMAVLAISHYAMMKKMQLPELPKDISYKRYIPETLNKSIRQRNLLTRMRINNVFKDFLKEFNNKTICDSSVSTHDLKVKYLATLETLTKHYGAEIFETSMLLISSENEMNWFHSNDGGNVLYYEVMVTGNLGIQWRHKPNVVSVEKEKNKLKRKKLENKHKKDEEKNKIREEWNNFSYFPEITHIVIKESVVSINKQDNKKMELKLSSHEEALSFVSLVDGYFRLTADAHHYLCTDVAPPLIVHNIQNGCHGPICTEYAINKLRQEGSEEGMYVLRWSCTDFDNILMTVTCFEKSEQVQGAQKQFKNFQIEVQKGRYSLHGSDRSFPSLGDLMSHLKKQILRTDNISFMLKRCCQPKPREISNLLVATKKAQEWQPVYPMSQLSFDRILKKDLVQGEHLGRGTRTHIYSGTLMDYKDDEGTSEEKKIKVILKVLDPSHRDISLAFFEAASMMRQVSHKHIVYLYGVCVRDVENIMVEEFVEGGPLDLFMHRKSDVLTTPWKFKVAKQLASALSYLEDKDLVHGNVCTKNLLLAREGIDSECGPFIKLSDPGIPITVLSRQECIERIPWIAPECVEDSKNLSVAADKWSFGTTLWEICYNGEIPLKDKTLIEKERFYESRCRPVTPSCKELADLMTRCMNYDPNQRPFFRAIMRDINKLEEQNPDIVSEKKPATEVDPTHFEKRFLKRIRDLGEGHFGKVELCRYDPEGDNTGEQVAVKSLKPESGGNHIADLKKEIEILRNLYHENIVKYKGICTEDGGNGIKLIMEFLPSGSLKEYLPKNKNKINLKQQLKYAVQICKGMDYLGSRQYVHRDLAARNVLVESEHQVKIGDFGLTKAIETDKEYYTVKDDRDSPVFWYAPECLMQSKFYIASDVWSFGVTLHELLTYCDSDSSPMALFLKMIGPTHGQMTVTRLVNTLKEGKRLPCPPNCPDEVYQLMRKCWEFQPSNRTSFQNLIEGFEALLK
T3 sequence (P29597 whole entry): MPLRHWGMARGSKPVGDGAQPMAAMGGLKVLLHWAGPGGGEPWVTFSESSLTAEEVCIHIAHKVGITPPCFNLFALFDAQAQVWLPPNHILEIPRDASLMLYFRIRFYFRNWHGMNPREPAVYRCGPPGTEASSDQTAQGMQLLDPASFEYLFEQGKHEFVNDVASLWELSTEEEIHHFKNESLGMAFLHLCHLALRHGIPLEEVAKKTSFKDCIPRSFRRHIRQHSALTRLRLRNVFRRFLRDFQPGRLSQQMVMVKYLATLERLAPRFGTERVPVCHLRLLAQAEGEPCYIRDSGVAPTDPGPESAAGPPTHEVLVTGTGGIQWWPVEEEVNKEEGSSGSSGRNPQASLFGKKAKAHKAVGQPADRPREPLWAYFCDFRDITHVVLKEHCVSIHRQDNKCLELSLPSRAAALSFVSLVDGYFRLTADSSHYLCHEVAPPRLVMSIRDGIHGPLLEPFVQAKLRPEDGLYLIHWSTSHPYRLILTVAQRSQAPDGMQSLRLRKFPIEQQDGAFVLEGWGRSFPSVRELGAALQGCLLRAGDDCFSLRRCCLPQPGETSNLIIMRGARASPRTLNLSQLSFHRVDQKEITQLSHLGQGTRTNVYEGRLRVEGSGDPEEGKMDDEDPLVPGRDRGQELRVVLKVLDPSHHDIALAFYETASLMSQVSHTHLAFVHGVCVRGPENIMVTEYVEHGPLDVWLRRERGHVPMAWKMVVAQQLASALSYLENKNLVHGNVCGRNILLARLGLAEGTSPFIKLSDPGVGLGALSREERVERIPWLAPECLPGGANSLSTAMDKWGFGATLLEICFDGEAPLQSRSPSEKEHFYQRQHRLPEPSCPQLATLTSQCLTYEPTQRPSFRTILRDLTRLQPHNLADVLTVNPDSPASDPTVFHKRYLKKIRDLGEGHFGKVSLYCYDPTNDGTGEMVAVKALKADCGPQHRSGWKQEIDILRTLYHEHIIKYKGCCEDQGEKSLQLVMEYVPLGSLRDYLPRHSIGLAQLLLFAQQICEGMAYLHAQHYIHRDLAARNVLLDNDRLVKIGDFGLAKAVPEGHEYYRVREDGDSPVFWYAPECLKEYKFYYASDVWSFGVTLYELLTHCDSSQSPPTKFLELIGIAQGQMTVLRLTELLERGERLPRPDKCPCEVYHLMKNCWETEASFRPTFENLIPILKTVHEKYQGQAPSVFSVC
T4 sequence (O60674 whole entry): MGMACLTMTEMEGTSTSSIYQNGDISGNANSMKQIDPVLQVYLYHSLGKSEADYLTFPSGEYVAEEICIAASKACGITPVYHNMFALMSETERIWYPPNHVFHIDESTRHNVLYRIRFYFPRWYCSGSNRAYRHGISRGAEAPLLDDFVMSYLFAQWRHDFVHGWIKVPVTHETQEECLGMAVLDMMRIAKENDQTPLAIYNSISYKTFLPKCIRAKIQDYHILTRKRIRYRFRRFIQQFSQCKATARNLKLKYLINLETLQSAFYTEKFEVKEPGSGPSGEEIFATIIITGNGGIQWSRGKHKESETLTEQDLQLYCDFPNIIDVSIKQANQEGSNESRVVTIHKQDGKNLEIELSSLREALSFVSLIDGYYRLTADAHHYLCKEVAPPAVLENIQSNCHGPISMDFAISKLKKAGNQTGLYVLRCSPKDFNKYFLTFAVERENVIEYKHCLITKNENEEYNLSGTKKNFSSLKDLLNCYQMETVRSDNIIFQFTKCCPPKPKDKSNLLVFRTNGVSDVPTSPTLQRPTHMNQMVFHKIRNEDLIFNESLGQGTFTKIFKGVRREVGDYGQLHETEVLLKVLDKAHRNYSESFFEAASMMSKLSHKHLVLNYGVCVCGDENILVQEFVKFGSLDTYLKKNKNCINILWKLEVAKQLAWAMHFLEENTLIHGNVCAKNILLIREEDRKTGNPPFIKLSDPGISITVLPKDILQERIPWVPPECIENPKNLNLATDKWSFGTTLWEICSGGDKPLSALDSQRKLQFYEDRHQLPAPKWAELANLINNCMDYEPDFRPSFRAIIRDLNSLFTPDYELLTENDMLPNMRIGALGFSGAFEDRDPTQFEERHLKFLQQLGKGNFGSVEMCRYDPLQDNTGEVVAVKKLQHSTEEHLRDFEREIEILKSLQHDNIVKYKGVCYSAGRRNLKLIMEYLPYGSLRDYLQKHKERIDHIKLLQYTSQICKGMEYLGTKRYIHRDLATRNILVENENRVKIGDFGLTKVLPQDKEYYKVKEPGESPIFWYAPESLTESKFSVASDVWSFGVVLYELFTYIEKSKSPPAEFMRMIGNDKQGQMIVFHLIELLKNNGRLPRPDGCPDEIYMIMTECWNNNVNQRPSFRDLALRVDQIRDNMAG

Structure (SMILES)	IC50 (JAK1) [nM]	Rat Hepatocyte CLint [1] [μL/min/10^6 cells]	IC50 (phosphorylation of STAT6) [nM]	IC50 (JAK3) [nM]	microsomal CLint at 1 μM [2] [µL/min/mg]	IC50 (TYK2) [nM]	IC50 (JAK2) [nM]
COC[C@H](C(=O)Nc1cccc2c(-c3nc(Nc4ccc(CO)cn4)ncc3F)c[nH]c12)N1CCN(C)CC1 [Example 59, (R)-N-(3-(5-fluoro-2-((5-(hydroxymethyl)pyridin-2-yl)amino)pyrimidin-4-yl)-1H-indol-7-yl)-3-methoxy-2-(4-methylpiperazin-1-yl)propanamide]	131	>300	17.4	> 10000	10.7	> 10000	2220
COC[C@H](C(=O)Nc1cccc2c(-c3nc(Nc4ccc5cn[nH]c5c4)ncc3F)c[nH]c12)N1CCN(C)CC1 [Example 13, (R)-N-(3-(2-((1H-indazol-6-yl)amino)-5-fluoropyrimidin-4-yl)-1H-indol-7-yl)-3-methoxy-2-(4-methylpiperazin-1-yl)propanamide]	0.33	5.5	7.2	8950	83.1	1390	88
COC[C@H](C(=O)Nc1cccc2c(-c3nc(Nc4ccc(NC(C)=O)nc4)ncc3F)c[nH]c12)N1CCN(C)CC1 [Example 48, (R)-N-(3-(2-((6-acetamidopyridin-3-yl)amino)-5-fluoropyrimidin-4-yl)-1H-indol-7-yl)-3-methoxy-2-(4-methylpiperazin-1-yl)propanamide]	0.27	1.6	14	> 10000	69.1	1700	379
COC[C@H](C(=O)Nc1cccc2c(-c3nc(Nc4ccc(CO)nc4)ncc3F)c[nH]c12)N1CCN(C)CC1 [Example 1, (R)-N-(3-(5-fluoro-2-((6-(hydroxymethyl)pyridin-3-yl)amino)pyrimidin-4-yl)-1H-indol-7-yl)-3-methoxy-2-(4-methylpiperazin-1-yl)propanamide]	0.13	68.8	4	> 10000	4.9	644	85
COC[C@H](C(=O)Nc1cccc2c(-c3nc(Nc4cnc(CO)c(C)c4)ncc3F)c[nH]c12)N1CCN(C)CC1 [Example 3, (R)-N-(3-(5-fluoro-2-((6-(hydroxymethyl)-5-methylpyridin-3-yl)amino)pyrimidin-4-yl)-1H-indol-7-yl)-3-methoxy-2-(4-methylpiperazin-1-yl)propanamide]	0.19		4.5	7700		156	4
COC[C@H](C(=O)Nc1cccc2c(-c3nc(Nc4ccc(OCC(=O)OC)nc4)ncc3F)c[nH]c12)N1CCN(C)CC1 [Example 14, methyl (R)-2-((5-((5-fluoro-4-(7-(3-methoxy-2-(4-methylpiperazin-1-yl)propanamido)-1H-indol-3-yl)pyrimidin-2-yl)amino)pyridin-2-yl)oxy)acetate]	0.2		7.3	> 10000		4200	336
